Test results: paper PMC12088000, “Design, synthesis and in silico molecular modelling studies of 2-Hydrazineyl-2-oxoethyl-4-(1H-pyrrol-1-yb) benzoate derivatives: a potent dual DHFR and ENR-reductase inhibitors with antitubercular, antibacterial and cytotoxic potential” (PLOS One, 2025)
In brackets after ≈: the same amount, converted by molar mass.

Columns and labels:
[1] = tested on: M. tuberculosis H37Rv; assay: Antitubercular activity, Microplate Alamar Blue test (MABA); type: cell-based, Mycobacterium tuberculosis; settings: n = 3; for MIC: Mycobacterium tuberculosis, H37RV
[2] = target: InhA enzyme from M. tuberculosis (Mycobacterium tuberculosis, UniProt P9WGR1); assay: InhA inhibition assay; type: biochemical; settings: for inhibition at 50 µM: read-out: % InhA Inhibition at 50 µM
[3] = target: MtDHFR (Mycobacterium tuberculosis, UniProt P9WNX1); assay: biochemical; type: biochemical
[4] = tested on: human lung cancer cell line A549; assay: MTT-based cytotoxicity; type: cell-based; settings: MTT assay; for IC50: Homo sapiens, A549
Description: The cytotoxic effects of seventeen selected molecules were assessed against the A549 human lung adenocarcinoma cell line using the MTT assay. Cisplatin served as the reference drug for comparison. Lower IC50 values indicate higher cytotoxicity.
The cytotoxic activity (IC50) of selected compounds against A549 (lung adenocarcinoma) MV cell-lines was evaluated by performing cellular conversion of MTT [3-(4,5-dimethylthiazo-2-yl)-2,5-diphenyl-tetrazolium bromide] into a formazan product. This evaluation was conducted up to a concentration of 50 mg/mL using the Promega Cell Titre 96 non-radioactive cell proliferation assay, with cisplatin serving as the positive control. Cytotoxicity is commonly quantified by determining the IC50 value, which represents the quantity of a substance that reduces the optical density of treated cells by 50% compared to untreated cells, as measured by the MTT experiment. The results are presented as IC50 values (mean ± standard error of the mean (SEM) obtained from three separate and independent measurements.

[5] = tested on: E. coli ATCC 25922; assay: Antibacterial activity, broth microdilution (E. coli); settings: for MIC: Escherichia coli, ATCC25922, read-out: E. coli ATCC 25922 (Gram –ve) MIC, broth microdilution; for E. coli ATCC 25922 (Gram –ve) MIC: broth microdilution
Description: (§1) All twenty-eight molecules were evaluated for in vitro antimicrobial activities that were assessed against Gram +ve and Gram -ve strains.
(§2) The antibacterial inhibitory effects of all compounds were assessed using the broth microdilution method, with ciprofloxacin serving as the reference medication.

[6] = tested on: S. aureus ATCC 29213; assay: Antibacterial activity, broth microdilution (S. aureus); settings: Staphylococcus aureus, ATCC29213, read-out: S. aureus ATCC 29213 (Gram +ve) MIC
Description: as §1, §2

Sequence of InhA enzyme from M. tuberculosis (P9WGR1 whole entry, looked up): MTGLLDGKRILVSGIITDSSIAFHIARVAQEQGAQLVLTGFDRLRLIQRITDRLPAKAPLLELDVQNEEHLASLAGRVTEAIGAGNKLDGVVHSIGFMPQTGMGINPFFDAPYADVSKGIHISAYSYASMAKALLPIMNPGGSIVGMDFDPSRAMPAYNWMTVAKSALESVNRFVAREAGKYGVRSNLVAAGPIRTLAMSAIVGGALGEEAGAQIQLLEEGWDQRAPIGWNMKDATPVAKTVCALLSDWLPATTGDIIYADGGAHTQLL
Sequence of MtDHFR (P9WNX1 whole entry): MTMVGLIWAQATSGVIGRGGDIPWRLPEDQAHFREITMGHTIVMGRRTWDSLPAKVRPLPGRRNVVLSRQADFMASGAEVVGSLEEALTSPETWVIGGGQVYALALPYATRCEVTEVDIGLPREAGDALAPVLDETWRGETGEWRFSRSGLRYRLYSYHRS

SMILES | MIC [1] [µg/mL] | M. tuberculosis H37Rv MIC values [1] [µg/mL] | inhibition at 50 µM [2] [%] | IC50 [3] [µM] | MtDHFR inhibition, in words, compared with trimethoprim [3] | IC50 [4] [µg/mL] | MIC [5] [µg/mL] | E. coli ATCC 25922 (Gram –ve) MIC [5] [µg/mL] | MIC [6] [µg/mL] | % InhA Inhibition at 50 µM [2] | IC50 human lung cancer cell line A549 [4] [µg/mL]
NC(=O)c1cnccn1 [Pyrazinamide, reference compound] | 3.12 (≈ 25.3 µM) | – | – | – | – | – | – | – | – | – | –
C/C(=N\NC(=O)COC(=O)c1ccc(-n2cccc2)cc1)c1ccc(Br)cc1 [Compound 5b, 2-(2-(1-(4-bromophenyl)ethylidene) hydrazineyl)-2-oxoethyl-4-(1H-pyrrol-1-yl) benzoate] | 0.8 (≈ 1.82 µM) | 0.8 | 22 | 23 | greater inhibition characteristics than trimethoprim | 266 ± 0.3 (≈ 604 µM) | 0.4 to 0.8 (≈ 0.908 to 1.82 µM) | 0.4 | 1.6 (≈ 3.63 µM) | – | –
CC(=NNC(=O)COC(=O)c1ccc(-n2cccc2)cc1)c1ccc(Cl)cc1 [Compound 5c, 2-(2-(1-(4-chlorophenyl)ethylidene)hydrazinyl)-2-oxoethyl 4-(1H-pyrrol-1-yl)benzoate] | 1.6 (≈ 4.04 µM) | – | – | 100 | – | – | 1.6 (≈ 4.04 µM) | – | 6.25 (≈ 15.8 µM) | – | –
CC(=NNC(=O)COC(=O)c1ccc(-n2cccc2)cc1)c1cccc(Cl)c1 [Compound 5k, 2-(2-(1-(3-chlorophenyl)ethylidene)hydrazinyl)-2-oxoethyl 4-(1H-pyrrol-1-yl)benzoate] | 1.6 (≈ 4.04 µM) | – | 32 | 69 | moderate inhibition | 229 ± 0.4 (≈ 579 µM) | 3.12 (≈ 7.88 µM) | – | 12.5 (≈ 31.6 µM) | – | –
Cc1cc(=O)n(C(=O)COC(=O)c2ccc(-n3cccc3)cc2)[nH]c1=O [Compound 4f, 2-(4-methyl-3,6-dioxo-2,3-dihydropyridazin-1(6H)-yl)-2-oxoethyl 4-(1H-pyrrol-1-yl)benzoate] | 1.6 (≈ 4.53 µM) | – | 23 | 35 | greater inhibition characteristics than trimethoprim | 258 ± 0.1 (≈ 730 µM) | 0.8 (≈ 2.26 µM) | – | 3.12 (≈ 8.83 µM) | – | –
O=C(COC(=O)c1ccc(-n2cccc2)cc1)NN=Cc1ccc(Cl)cc1 [Compound 6d, 2-(2-(4-chlorobenzylidene)hydrazinyl)-2-oxoethyl 4-(1H-pyrrol-1-yl)benzoate] | 0.8 (≈ 2.1 µM) | 0.8 | 18 | 62 | moderate inhibition | 262 ± 0.7 (≈ 686 µM) | 1.6 (≈ 4.19 µM) | – | 3.12 (≈ 8.17 µM) | – | –
[H]/N=C(/N)N[C@H]1[C@H](O)[C@@H](O)[C@H](O[C@@H]2O[C@@H](C)[C@](O)(C=O)[C@H]2O[C@@H]2O[C@@H](CO)[C@H](O)[C@@H](O)[C@@H]2NC)[C@@H](N/C(N)=N\[H])[C@@H]1O [Streptomycin, reference compound] | 0.8 (≈ 1.38 µM) | – | – | – | – | – | – | – | 2 (≈ 3.44 µM) | – | –
CC(=NNC(=O)COC(=O)c1ccc(-n2cccc2)cc1)c1ccc(N)cc1 [Compound 5o, 2-(2-(1-(4-aminophenyl)ethylidene)hydrazinyl)-2-oxoethyl 4-(1H-pyrrol-1-yl)benzoate] | 3.12 (≈ 8.29 µM) | – | – | 90 | – | – | 3.12 (≈ 8.29 µM) | – | 12.5 (≈ 33.2 µM) | – | –
O=C(COC(=O)c1ccc(-n2cccc2)cc1)NN=Cc1ccc([N+](=O)[O-])cc1 [Compound 6c, 2-(2-(4-nitrobenzylidene)hydrazinyl)-2-oxoethyl 4-(1H-pyrrol-1-yl)benzoate] | 1.6 (≈ 4.08 µM) | – | 9 | 133 | – | 296 ± 0.3 (≈ 754 µM) | 1.6 (≈ 4.08 µM) | – | 6.25 (≈ 15.9 µM) | – | –
O=C(OCC(=O)n1[nH]c(=O)ccc1=O)c1ccc(-n2cccc2)cc1 [Compound 4e, 2-(3,6-dioxo-2,3-dihydropyridazin-1(6H)-yl)-2-oxoethyl 4-(1H-pyrrol-1-yl)benzoate] | 1.6 (≈ 4.72 µM) | – | – | 32 | greater inhibition characteristics than trimethoprim | – | 1.6 (≈ 4.72 µM) | – | 6.25 (≈ 18.4 µM) | – | –
O=C(COC(=O)c1ccc(-n2cccc2)cc1)NN=Cc1ccccc1Br [Compound 6b, 2-(2-(2-bromobenzylidene)hydrazinyl)-2-oxoethyl 4-(1H-pyrrol-1-yl)benzoate] | 1.6 (≈ 3.75 µM) | – | – | 130 | – | – | 1.6 (≈ 3.75 µM) | – | 3.12 (≈ 7.32 µM) | no inhibition | –
CC(=NNC(=O)COC(=O)c1ccc(-n2cccc2)cc1)c1cccc([N+](=O)[O-])c1 [Compound 5g, 2-(2-(1-(3-nitrophenyl)ethylidene)hydrazinyl)-2-oxoethyl 4-(1H-pyrrol-1-yl)benzoate] | 1.6 (≈ 3.94 µM) | – | 34 | 132 | – | 249 ± 0.9 (≈ 613 µM) | 1.6 (≈ 3.94 µM) | – | 6.25 (≈ 15.4 µM) | – | –
COc1ccc(C=NNC(=O)COC(=O)c2ccc(-n3cccc3)cc2)cc1 [Compound 6e, 2-(2-(4-methoxybenzylidene)hydrazinyl)-2-oxoethyl 4-(1H-pyrrol-1-yl)benzoate] | 1.6 (≈ 4.24 µM) | – | – | 69 | moderate inhibition | – | 1.6 (≈ 4.24 µM) | – | 6.25 (≈ 16.6 µM) | no inhibition | –
N.N.[Cl][Pt][Cl] [Cisplatin, reference compound] | – | – | – | – | – | – | – | – | – | – | 9.90
C/C(=N\NC(=O)COC(=O)c1ccc(-n2cccc2)cc1)c1ccc([N+](=O)[O-])cc1 [Compound 5d, 2-(2-(1-(4-nitrophenyl)ethylidene) hydrazineyl) -2-oxoethyl-4-(1H-pyrrol-1-yl) benzoate] | 1.6 (≈ 3.94 µM) | – | – | 121 | – | – | 1.6 (≈ 3.94 µM) | – | 6.25 (≈ 15.4 µM) | – | –
CC(=NNC(=O)COC(=O)c1ccc(-n2cccc2)cc1)c1ccc(Br)cc1Br [Compound 5m, 2-(2-(1-(2,4-dibromophenyl)ethylidene)hydrazinyl)-2-oxoethyl 4-(1H-pyrrol-1-yl)benzoate] | 3.12 (≈ 6.01 µM) | – | – | 90 | – | – | 0.4 to 0.8 (≈ 0.77 to 1.54 µM) | 0.8 | 6.25 (≈ 12 µM) | – | –
O=C(O)c1cn(C2CC2)c2cc(N3CCNCC3)c(F)cc2c1=O [Ciprofloxacin, reference compound] | – | – | – | – | – | – | 2 (≈ 6.04 µM) | – | 2 (≈ 6.04 µM) | – | –
CC(=NNC(=O)COC(=O)c1ccc(-n2cccc2)cc1)c1cccc(O)c1 [Compound 5p, 2-(2-(1-(3-hydroxyphenyl)ethylidene)hydrazinyl)-2-oxoethyl 4-(1H-pyrrol-1-yl)benzoate] | 3.12 (≈ 8.27 µM) | – | – | 115 | – | – | 3.12 (≈ 8.27 µM) | – | 12.5 (≈ 33.1 µM) | – | –
COc1ccc(C(C)=NNC(=O)COC(=O)c2ccc(-n3cccc3)cc2)cc1 [Compound 5i, 2-(2-(1-(4-methoxyphenyl)ethylidene)hydrazinyl)-2-oxoethyl 4-(1H-pyrrol-1-yl)benzoate] | 3.12 (≈ 7.97 µM) | – | – | 129 | – | – | 1.6 (≈ 4.09 µM) | – | 6.25 (≈ 16 µM) | – | –
COc1cccc(C(C)=NNC(=O)COC(=O)c2ccc(-n3cccc3)cc2)c1 [Compound 5h, 2-(2-(1-(3-methoxyphenyl)ethylidene)hydrazinyl)-2-oxoethyl 4-(1H-pyrrol-1-yl)benzoate] | 1.6 (≈ 4.09 µM) | – | – | 124 | – | – | 3.12 (≈ 7.97 µM) | – | 12.5 (≈ 31.9 µM) | – | –
O=C1CCC(=O)N(C(=O)COC(=O)c2ccc(-n3cccc3)cc2)N1 [Compound 4d, 2-(3,6-dioxotetrahydropyridazin-1(2H)-yl)-2-oxoethyl 4-(1H-pyrrol-1-yl)benzoate] | 1.6 (≈ 4.69 µM) | – | – | 31 | greater inhibition characteristics than trimethoprim | – | 1.6 (≈ 4.69 µM) | – | 6.25 (≈ 18.3 µM) | – | –
C=C1CC(=O)N(C(=O)COC(=O)c2ccc(-n3cccc3)cc2)NC1=O [Compound 4g, 2-(4-methylene-3,6-dioxotetrahydropyridazin-1(2H)-yl)-2-oxoethyl 4-(1H-pyrrol-1-yl)benzoate] | 1.6 (≈ 4.53 µM) | – | – | 56 | moderate inhibition | – | 0.8 (≈ 2.26 µM) | – | 3.12 (≈ 8.83 µM) | – | –
NNC(=O)c1ccncc1 [Isoniazid, reference compound] | 1.6 (≈ 11.7 µM) | – | > 99 | – | – | > 450 | – | – | – | – | –
CC(=NNC(=O)COC(=O)c1ccc(-n2cccc2)cc1)c1ccc(Cl)cc1Cl [Compound 5n, 2-(2-(1-(2,4-dichlorophenyl)ethylidene)hydrazinyl)-2-oxoethyl 4-(1H-pyrrol-1-yl)benzoate] | 3.12 (≈ 7.25 µM) | – | – | 93 | – | – | 0.4 to 0.8 (≈ 0.93 to 1.86 µM) | 0.8 | 6.25 (≈ 14.5 µM) | – | –
CC(=NNC(=O)COC(=O)c1ccc(-n2cccc2)cc1)c1ccc(C)cc1 [Compound 5e, 2-oxo-2-(2-(1-(p-tolyl)ethylidene)hydrazinyl)ethyl 4-(1H-pyrrol-1-yl)benzoate] | 1.6 (≈ 4.26 µM) | – | – | 118 | – | – | 3.12 (≈ 8.31 µM) | – | 12.5 (≈ 33.3 µM) | – | –
